This note sets out measurements from US4599357A, “1-mercaptoalkanoylindoline-2-carboxylic acids” (Ciba-Geigy Corporation, priority 1980, dated 1986).

The assay deals with angiotensin I converting enzyme. Description: inhibition of the angiotensin I pressor response in anesthetized normotensive rats. It counts as in vivo. As to the method: The enzyme renin, normally causes specific hydrolysis of the circulating protein renin-substrate. This hydrolysis generates angiotensin I, which is further hydrolyzed by the action of said converting enzyme to the potent vasoconstrictor angiotensin II. The inhibition of said enzyme prevents the generation of angiotensin II from I and, therefore, attenuates any pressure response following an angiotensin I challenge.
The corresponding in vivo test is performed with male, normotensive rats, which are anesthetized with 100-120 mg/kg i.p. of sodium ethyl-(1-methylpropyl)malonylthiourea. A femoral artery and saphenous vein are cannulated for direct blood pressure measurement and i.v. administration of angiotensin I and compounds of this invention. After the basal blood pressure is stabilized, pressor responses to 3 challenges of 0.33 μg/kg of angiotensin I i.v., in 5 minute intervals, are obtained. Such pressure responses are again obtained 5, 10, 15, 30 and 60 minutes after either i.v., or p.o. administration (stomach tube) of the compounds to be tested, and compared with the initial responses. Any observed decrease of said pressor response is an indication of angiotensin I converting enzyme inhibition, ranging up to 80% after 10 mg/kg i.v., or 50 mg/kg p.o. doses, which decrease may be sustained up to 60 minutes.

Turning to `C[C@H](CS)C(=O)N1c2ccccc2C[C@H]1C(=O)O` [1-(3-mercapto-2S-methylpropanoyl)-indoline-2S-carboxylic acid], the “inhibitory effect against the angiotensin I pressure response” value is listed as “inhibitory effect”.
